# Test results reported in US8193175B2, “Ruthenium complexes for treating cancers” (Universite de Strasbourg, priority 2004, dated 2012).
# Legend:
# A172 cells [1] = assay: Western blot of p53, p73, p21 and Bax in A172 cells; type: cell-based, human
# Experimental: FIG. 3: Detection of p53 and p73 in A172 cells treated with CDR. The A172 cells were treated with the concentrations indicated (2, 5 or 10 μM) with the various compounds and for the periods of time indicated (24 hrs or 6 hrs). The proteins were extracted with a lysis buffer and were separated on 10% SDS-Page gel. After being transferred onto nitrocellulose, the p53 and p73 proteins were detected by Western blot using anti-p53 (pAb1801) and anti-p73 (1/200, Ab2, Oncogene) antibody.
# FIG. 4: Detection of p21 and Bax in A172 cells treated with CDR. The A172 cells were treated with the various compounds (10 μM) for 24 hrs. The proteins were extracted with a lysis buffer and were separated on 10% SDS-Page gel. After being transferred onto nitrocellulose, the p21 and Bax proteins were detected by Western blot using anti-p21 (1/200, Oncogene) and anti-Bax (1/2000, Santacruz) antibody.
# (§1) For the purpose of determining the molecular mechanisms used by the ruthenium derivatives and comparing them with those induced by cisplatinum, the expression of p53, p73 p21 and bax in the A172 and HCT116 lines was analysed.
# A172 cells [2] = assay: MTT test on A172 cells, combination with NCS or Taxol; type: cell-based, human; settings: concentration bringing about 10% of the maximum effect; 48 hrs
# Experimental: FIG. 7: The A172 cells were cultivated in plates with 96 wells in DMEM medium with 10% calf serum. At 30% confluence, the cells were treated for 48 hrs with cisplatinum, CDR6, NCS (Neocarzinostatin), Taxol or a combination of these drugs in the concentrations indicated. The quantity of cells present in the wells was evaluated by an MTT (MTT, Sigma) test, the reaction products of which are quantified with an Elisa plate reader (Metertech, USA) (490-650 nm). […] The graphs show an average of 8 points with the typical spacings over one experiment representative of 4 carried out. The thick black line indicates the IC50 for each graph.
# The mechanisms induced by various anticancer drugs are different according to the mode of action of these drugs. […] NCS induces DNA double strand breaks, similar to those of gamma rays (Smith and Nicolaou 1996). Taxol disrupts the mitotic spindles (Oberlies and Kroll 2004).
# A comparison was made using two doses of NCS and two doses of Taxol. The one enables one to expect the IC50, the other leads to a reduction by 10% of the cell viability after 48 hrs treatment. These two concentrations were combined with a concentration of ruthenium derivative or cisplatinum bringing about 10% of the maximum effect.
# [3] = tested on: A172, HS683, N2A, and SH5Y; assay: MTT test on glioblastoma and neuroblastoma lines; type: cell-based, human; settings: 48 hrs treatment; compared with cisplatinum
# Experimental: FIG. 1: The A172 cells were cultivated on plates with 96 wells in DMEM medium with 10% calf serum. At 30% confluence, the cells were treated for 48 hrs with cisplatinum or the various compounds derived from ruthenium in the concentrations indicated (1, 5, 15, 50 μM). The quantity of cells present in the wells was evaluated by an MTT (MTT, Sigma) test of which the products of the reaction are quantified with an Elisa plate reader (Metertech, USA) (490-650 nm). The results obtained were related to the values of the control condition (100% viability). The graphs show an average of 8 points with the typical spacings over one experiment representative of 4 carried out. The thick black line indicates the IC50 for each graph.
# TABLE 2: a summary of the results obtained on various cell lines and primary glial cultures. The experiments were carried out under the same conditions as those described for the A172 cells. Each IC50 is an indicative value obtained over 4 independent experiments.
# (§2) The first step towards characterising the anticancerous effects of the compounds derived from ruthenium consists of testing their activity on tumoral lines kept in culture and comparing these effects on lines which have different characteristics as regards resistance to the anticancer treatments. Two lines of human glioblastomas (A172, HS683) and two lines of neuroblastomas (N2A and SH5Y) were used in order to test the cytostatic effects of the compounds according to the invention. Cisplatinum was chosen as the cytotoxic comparison agent. In a first approach, an MTT test was used to measure the activity of a mitochondrial enzyme, and this gives an estimate of the number of cells. Then, the cytotoxic effects of the compounds according to the invention were characterised in greater detail by analysing the morphology of the nucleus and the activation of caspase 3—two markers of cell apoptosis.
# HCT116 cells = assay: Western blot of p53, p21 and phospho-histone H3 in HCT116 cells; type: cell-based, human; settings: 10 μM
# Experimental: FIG. 5: Detection of p53, p21 and of the phosphorylation of histone H3 in the HCT116 cells treated with CDR. The HCT116 cells were treated with the various compounds (10 μM) and for the periods of time indicated (24 hrs or 6 hrs). The proteins were extracted with a lysis buffer and were separated on 10% SDS-Page gel. After being transferred onto nitrocellulose, the p53, p21 proteins and histone H3 were detected by Western blot using anti-p53 (pAb1801), anti-p21 (1/200, Oncogene) antibody and anti-phospho serine 10 of histone H3 (1/2000, Santacruz).
# as §1
# [4] = tested on: 2008/CMV and 2008/ATP7B cells; assay: MTT test on 2008/CMV and 2008/ATP7B cells; type: cell-based; settings: 48 hrs
# Experimental: FIG. 6: The 2008/CMV and 2008/ATP7B cells (contributed by Dr. Howell) were cultivated in plates with 96 wells in DMEM medium with 10% calf serum. At 30% confluence, the cells were treated for 48 hrs with cisplatinum or the various compounds derived from ruthenium in the concentrations indicated (1, 5, 15, 50 μM). The quantity of cells present in the wells was evaluated by an MTT (MTT, Sigma) test. The results obtained were related to the values of the control condition (100% viability). The graphs show an average of 8 points with the typical spacings over one experiment representative of 3 carried out. The thick black line indicates the IC50 for each graph.
# One of these mechanisms is the overexpression of the copper export pump (ATP7B) which expels cisplatinum from the cell. It has been shown that this molecule is overexpressed in human tumours and that cell lines which overexpress this molecule are more resistant to cisplatinum and carboplatinum than control lines.
# Two cell lines derived from 2008 cells (Katano, Safaei et al. 2003) were studied. One overexpresses the ATP7B pump, and the other only contains the control vector. The cytostatic activity of the cisplatinum and the CDR was tested in these two lines using the MTT test.
# A172 glioblastoma cells = assay: Nucleus morphology and caspase 3 activation in A172 cells; type: cell-based, human
# Text: FIG. 2: A—The A172 cells were cultivated on glass slides. […] The cells were then fixed in 4% paraformaldehyde, permeabilised with 0.1% NP40 and marked with Hoechst dye (blue) and the anti-p20 antibody (active fragment of caspase 3, in red). The cells were then observed under the fluorescence microscope. B—Graphic representation of the number of cells with an apoptotic, fragmented or condensed nucleus. The bars are an average of two slides from one experiment representative of 3 carried out. C—In parallel, proteic extracts were prepared from cells treated with various drugs (cisplatinum 15 μM; CDR225 μM; CDR615 μM; CDR915 μM) and following denaturation the extracts were deposited on a !0% SDS-Page gel. After migration, the proteins were transferred onto nitrocellulose (Biorad, 0.2 μm) and the p20 fragment of the caspase 3 was detected by Western blot with an anti-p20 antibody (1/1000, R&D System).
# as §2
smiles,measurement,setting,value
"CN(C)Cc1cccc[c]1[Ru+].CP(C)c1ccccc1.F[P-](F)(F)(F)(F)F.c1ccccc1 [Compound 6, [Ru (η^6-C6H6)-2-(CH2NMe2)—C6H4—(PMe2Ph)]PF6]",expression of p21 and Bax,"A172 cells [1]; 10 μM, 24 hours treatment",induces the expression of p21 and Bax
same,p53 proteic levels,A172 cells [1]; 6 hrs treatment,induce p53
same,p53 proteic levels,A172 cells [1]; 24 hrs treatment,no effect
same,effectiveness of co-treatment with NCS or Taxol,A172 cells [2],significantly more effective in relation to a co-treatment with cisplatinum
same,reduction of the number of tumoral cells (MTT),[3],at a concentration similar to or lower than that of cisplatinum
same,increase in expression of p21 and inhibition of phosphorylation of histone H3,HCT116 cells,identical for CDR 6 and cisplatinum
same,induction of p53,HCT116 cells; 6 hrs to 24 hrs,induction of p53
same,sensitivity of the line expressing ATP7B relative to the control line (MTT),[4],equivalent to that of the control line
same,nuclear condensation and fragmentation,A172 glioblastoma cells; 48 hrs treatment,induce nuclear condensation and fragmentation characteristic of apoptosis
same,proteic levels of the active fragment of caspase 3 (Western blot),"A172 glioblastoma cells; cisplatinum 15 μM, CDR6 15 μM, CDR9 15 μM",increasing the proteic levels of the active fragment of caspase 3
